In patent US20230092890A1, “1, 3, 4-Oxadiazole derivative compounds as histone deacetylase 6 inhibitor, and the pharmaceutical composition comprising the same” (Chong Kun Dang Pharmaceutical Corp., priority 2019, published 2023) one finds IC50 data, which are given here for 10 molecules.

One assay deals with T1, HDAC1 (Homo sapiens, UniProt Q13547).
T1 construct: purchased Enzolifesciences BML-AK511
Description: HDAC enzyme activity inhibition (in vitro), HDAC1 Fluorimetric Drug Discovery Assay Kit. The following applies: samples at 100, 1000 and 10000 nM; 37° C. 60 minutes; fluorescence Ex 390, Em 460; read-out: HDAC1 IC50. The format is biochemical. The gist of the method:
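Compounds at 100, 1000, 10000 nM (HDAC1) or 0.1, 1, 10, 100, 1000 nM (HDAC6); 37° C, 60 min; developer, 37° C, 30 min; fluorescence Ex 390/Em 460.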

Another assay concerns the target T2, HDAC6 human recombinant (Homo sapiens, UniProt Q9UBN7).
T2 construct: purchased Calbiochem 382180
T2 sequence (Q9UBN7 1-1215): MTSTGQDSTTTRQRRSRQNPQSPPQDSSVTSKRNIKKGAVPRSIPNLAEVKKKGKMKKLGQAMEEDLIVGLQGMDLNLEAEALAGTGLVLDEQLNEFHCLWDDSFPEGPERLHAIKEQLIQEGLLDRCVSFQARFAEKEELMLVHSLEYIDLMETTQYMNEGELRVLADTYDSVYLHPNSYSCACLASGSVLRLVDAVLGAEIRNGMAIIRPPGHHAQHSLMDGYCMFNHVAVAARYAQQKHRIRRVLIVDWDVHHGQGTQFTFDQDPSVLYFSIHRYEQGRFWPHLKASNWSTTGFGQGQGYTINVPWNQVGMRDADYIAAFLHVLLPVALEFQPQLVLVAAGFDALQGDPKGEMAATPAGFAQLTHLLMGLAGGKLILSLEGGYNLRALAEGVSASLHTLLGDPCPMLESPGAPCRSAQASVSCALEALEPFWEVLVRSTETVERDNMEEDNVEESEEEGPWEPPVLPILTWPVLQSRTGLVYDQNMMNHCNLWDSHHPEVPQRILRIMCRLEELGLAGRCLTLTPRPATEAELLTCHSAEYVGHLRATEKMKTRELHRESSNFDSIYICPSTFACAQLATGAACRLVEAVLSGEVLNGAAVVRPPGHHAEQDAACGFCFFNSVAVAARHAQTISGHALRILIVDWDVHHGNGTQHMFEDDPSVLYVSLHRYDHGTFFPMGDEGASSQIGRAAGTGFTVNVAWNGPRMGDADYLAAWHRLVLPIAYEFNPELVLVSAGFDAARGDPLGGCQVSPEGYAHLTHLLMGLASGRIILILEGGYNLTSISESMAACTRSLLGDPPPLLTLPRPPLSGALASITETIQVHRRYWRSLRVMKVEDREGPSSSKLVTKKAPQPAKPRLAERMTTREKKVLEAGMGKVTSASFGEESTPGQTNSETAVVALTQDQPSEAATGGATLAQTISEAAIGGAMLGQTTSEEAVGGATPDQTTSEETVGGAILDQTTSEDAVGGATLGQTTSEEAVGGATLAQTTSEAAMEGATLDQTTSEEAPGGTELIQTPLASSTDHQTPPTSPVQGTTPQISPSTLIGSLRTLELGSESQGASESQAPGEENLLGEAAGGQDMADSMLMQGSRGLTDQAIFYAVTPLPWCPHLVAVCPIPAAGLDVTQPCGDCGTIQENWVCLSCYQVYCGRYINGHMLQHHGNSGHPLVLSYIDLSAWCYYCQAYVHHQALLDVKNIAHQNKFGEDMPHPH
In words: HDAC enzyme activity inhibition (in vitro), HDAC6 assay. The following applies: samples at 0.1, 1, 10, 100 and 1000 nM; 37° C. 60 minutes; fluorescence Ex 390, Em 460; read-out: HDAC6 IC50. Format: biochemical. The method, boiled down:
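HDAC6 human recombinant enzyme with fluorimetric substrate; […]. Reaction 60 min at 37° C, then developer 30 min at 37° C; fluorescence read at Ex 390/Em 460.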

T1 sequence (Q13547 whole entry): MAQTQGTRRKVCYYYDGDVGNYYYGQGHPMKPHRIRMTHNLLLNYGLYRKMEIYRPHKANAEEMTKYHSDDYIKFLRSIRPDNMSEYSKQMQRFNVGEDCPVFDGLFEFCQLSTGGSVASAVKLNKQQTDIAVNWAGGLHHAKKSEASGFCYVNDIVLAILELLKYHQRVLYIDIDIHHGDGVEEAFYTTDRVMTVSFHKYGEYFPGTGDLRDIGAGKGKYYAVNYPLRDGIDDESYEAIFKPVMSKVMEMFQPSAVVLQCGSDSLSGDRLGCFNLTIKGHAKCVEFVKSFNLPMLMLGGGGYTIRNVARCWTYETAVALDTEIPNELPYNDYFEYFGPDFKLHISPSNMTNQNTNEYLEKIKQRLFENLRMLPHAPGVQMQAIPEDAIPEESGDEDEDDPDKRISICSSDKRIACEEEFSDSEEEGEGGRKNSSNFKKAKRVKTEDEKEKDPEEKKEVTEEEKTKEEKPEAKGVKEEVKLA

The term IC50 denotes the concentration that inhibits the measured activity by half. In the case of `Cn1c(=O)n(Cc2ccc(-c3nnc(C(F)F)o3)cn2)c2cc(F)c(N3CCN(Cc4cccnc4)CC3)cc21` [Compound 303, 1-((5-(5-(difluoromethyl)-1,3,4-oxadiazole-2-yl)pyridine-2-yl)methyl)-6-fluoro-3-methy 1-5-(4-(pyridine-3-ylmethyl)piperazine-1-yl)-1,3-dihydro-2H-benzo[d]imidazole-2-one], the IC50 on HDAC1 is > 10 µM; at HDAC6 human recombinant, 29 nM.
In the case of `O=c1oc2cc(-c3cccnc3)ccc2n1Cc1ccc(-c2nnc(C(F)F)o2)cn1` [Compound 304, 3-((5-(5-(difluoromethyl)-1,3,4-oxadiazole-2-yl)pyridine-2-yl)methyl)-6-(pyridine-3-yl) benzo[d]oxazole-2(3H)-one], the IC50 at HDAC1 was > 10 µM; at HDAC6 human recombinant, 37 nM.
The matching figures for `O=c1oc2cc(-c3ccncc3)ccc2n1Cc1ccc(-c2nnc(C(F)F)o2)cn1` [Compound 305, 3-((5-(5-(difluoromethyl)-1,3,4-oxadiazole-2-yl)pyridine-2-yl)methyl)-6-(pyridine-4-yl) benzo[d]oxazole-2(3H)-one]: > 10 µM and 50 nM.
`O=c1oc2cc(-c3cccc4[nH]ccc34)ccc2n1Cc1ccc(-c2nnc(C(F)F)o2)cn1` [Compound 306, 3-((5-(5-(difluoromethyl)-1,3,4-oxadiazole-2-yl)pyridine-2-yl)methyl)-6-(1H-indole-4-yl)benzo[d]oxazole-2(3H)-one]: the values for the IC50 on HDAC1 and on HDAC6 human recombinant were > 10 µM and 34 nM, respectively.
On to `CC(C)(C)OC(=O)N1CCC(c2ccc3c(c2)oc(=O)n3Cc2ccc(-c3nnc(C(F)F)o3)cn2)CC1` [Compound 307, tert-butyl 4-(3-((5-(5-(difluoromethyl)-1,3,4-oxadiazole-2-yl)pyridine-2-yl)methyl)-2-oxo-2,3-dihydrobenzo[d]oxazole-6-yl)piperidine-1-carboxylate], for which the IC50 at HDAC1 is > 10 µM; on HDAC6 human recombinant, 399 nM.
The matching figures for `O=c1oc2cc(C3CCNCC3)ccc2n1Cc1ccc(-c2nnc(C(F)F)o2)cn1` [Compound 308, 3-((5-(5-(difluoromethyl)-1,3,4-oxadiazole-2-yl)pyridine-2-yl)methyl)-6-(piperidine-4-yl)benzo[d]oxazole-2(3H)-one]: > 10 µM and 456 nM.
On to `CN1CCC(c2ccc3c(c2)oc(=O)n3Cc2ccc(-c3nnc(C(F)F)o3)cn2)CC1` [Compound 309, 3-((5-(5-(difluoromethyl)-1,3,4-oxadiazole-2-yl)pyridine-2-yl)methyl)-6-(1-methylpiperidine-4-yl)benzo[d]oxazole-2(3H)-one], for which the IC50 is > 10 µM on HDAC1 and 53 nM at HDAC6 human recombinant.
With `O=c1n(Cc2ccc(-c3nnc(C(F)F)o3)cn2)c2cc(F)c(-c3cccc4[nH]ccc34)cc2n1C1CN(C2COC2)C1` [Compound 310, 1-((5-(5-(difluoromethyl)-1,3,4-oxadiazole-2-yl)pyridine-2-yl)methyl)-6-fluoro-5-(1H-indole-4-yl)-3-(1-(oxetan-3-yl)azetidine-3-yl)-1,3-dihydro-2H-benzo[d]imidazole-2-one], the IC50 was > 10 µM at HDAC1 and 6 nM on HDAC6 human recombinant.
For `O=c1n(Cc2ccc(-c3nnc(C(F)F)o3)cn2)c2cc(F)c(-c3cccnc3)cc2n1C1CN(C2COC2)C1` [Compound 311, 1-((5-(5-(difluoromethyl)-1,3,4-oxadiazole-2-yl)pyridine-2-yl)methyl)-6-fluoro-3-(1-(oxetan-3-yl)azetidine-3-yl)-5-(pyridine-3-yl)-1,3-dihydro-2H-benzo[d]imidazole-2-one], the results for the IC50 on HDAC1 and on HDAC6 human recombinant were > 10 µM and 12 nM, respectively.
Take `O=c1n(Cc2ccc(-c3nnc(C(F)F)o3)cn2)c2cc(F)c(-c3cn[nH]c3)cc2n1C1CN(C2COC2)C1` [Compound 312, 1-((5-(5-(difluoromethyl)-1,3,4-oxadiazole-2-yl)pyridine-2-yl)methyl)-6-fluoro-3-(1-(oxetan-3-yl)azetidine-3-yl)-5-(1H-pyrazole-4-yl)-1,3-dihydro-2H-benzo[d]imidazole-2-one]: the IC50 was > 10 µM at HDAC1 and 6 nM on HDAC6 human recombinant.
